Measurements: patent publication US20090246292A1, “ANTIMICROBIAL FORMULATIONS COMPRISING A QUINONE AND A COPPER SALT” (priority 2006, published 2009)

How the values were obtained:
P. acnes PRP-101 [1] = assay: Disc diffusion assay (DDA), also supplemented; type: cell-based, Propionibacterium acnes; settings: 200 μg per disc
Description: (§4) The propionibacteria were cultured and maintained on Wilkins-Chalgren Anaerobe Medium (agar and broth) at pH 6.0; all cultures were incubated anaerobically at 37° C. for 72 hours.
(§5) A sterile paper disc was impregnated with a sample of the test compound in a suitable solvent and 30 minutes allowed for the solvents to evaporate (where possible). The disc was then placed on an agar plate onto which the test micro-organism had been inoculated. The plate was then incubated under the conditions described above, following which it was examined visually for signs of bacterial growth. […] The diameter of this zone of “inhibition” was measured using a ProtoCOL™ automated zone sizer (Synbiosis, Cambridge, UK).
(§6) For assays using Propionibacterium spp. strains the supplements used in the examples below were lipid (either Tween™ 80 or triolein, both at 1% v/v) and sodium chloride (100 mM).

P. granulosum PRP-021 [2] = assay: Disc diffusion assay (DDA), also supplemented; type: cell-based; settings: 200 μg per disc
Description: as §4, §5, §6

P. acnes PRP-023 [3] = assay: Disc diffusion assay (DDA), also supplemented; type: cell-based, Propionibacterium acnes; settings: 200 μg per disc
Description: as §4, §5, §6

P. acnes PRP-008 [4] = assay: Disc diffusion assay (DDA), also supplemented; type: cell-based, Propionibacterium acnes; settings: 200 μg per disc
Description: as §4, §5, §6

P. acnes PRP-101 [5] = settings: P. acnes PRP-101 (resistance Tet/MLS); agar dilution
Description: (§1) This is a standard international method for quantitatively assessing the antimicrobial activity of a compound in a solid medium. […] A set amount of these antimicrobial stock solutions was then added to molten agar medium (ca. 55° C.), mixed thoroughly, poured into sterile Petri dishes and allowed to cool/set. The culture medium was as described above.
(§2) A Multipoint™ Inoculator (AQS Manufacturing Ltd, UK) was used to inoculate the plates by spotting the inocula onto the surface of the agar, delivering approximately 1 to 2 μl per spot (yielding 10^5 CFU (colony forming units) per spot).
(§3) The plate(s) were then incubated under the conditions described above, following which they were examined visually for signs of bacterial growth. The MIC value was ascertained when there was a marked reduction in, or total loss of, growth on the test plate at the lowest concentration as compared to that of the growth on the control plate.

P. granulosum PRP-044 = P. granulosum PRP-044 (resistance MLS); agar dilution
Description: as §1, §2, §3

P. acnes PRP-017 = P. acnes PRP-017 (resistance MLS); agar dilution
Description: as §1, §2, §3

P. acnes PRP-004 = P. acnes PRP-004 (resistance Tet); agar dilution
Description: as §1, §2, §3

P. acnes PRP-008 [6] = settings: P. acnes PRP-008 (resistance Clin); agar dilution
Description: as §1, §2, §3

P. granulosum NCTC 11865 = P. granulosum NCTC 11865 (resistance None); agar dilution
Description: as §1, §2, §3

P. granulosum PRP-005 = P. granulosum PRP-005 (resistance MLSK); agar dilution
Description: as §1, §2, §3

P. acnes PRP-102 [7] = settings: P. acnes PRP-102 (resistance Tet/MLS); agar dilution
Description: as §1, §2, §3

P. acnes PRP-039 = P. acnes PRP-039 (resistance Tet/MLS); agar dilution
Description: as §1, §2, §3

P. acnes PRP-023 [8] = settings: P. acnes PRP-023 (resistance MLSK); agar dilution
Description: as §1, §2, §3

P. granulosum PRP-006 = P. granulosum PRP-006 (resistance MLS); agar dilution
Description: as §1, §2, §3

P. acnes PRP-046 = P. acnes PRP-046 (resistance None); agar dilution
Description: as §1, §2, §3

P. granulosum PRP-021 [9] = settings: P. granulosum PRP-021 (resistance MLS); agar dilution
Description: as §1, §2, §3

P. acnes PRP-003 = P. acnes PRP-003 (resistance Tet); agar dilution
Description: as §1, §2, §3

P. acnes PRP-010 = P. acnes PRP-010 (resistance MLSK); agar dilution
Description: as §1, §2, §3

P. acnes PRP-007 = P. acnes PRP-007 (resistance Clin); agar dilution
Description: as §1, §2, §3

P. acnes PRP-068 = P. acnes PRP-068 (resistance Ery); agar dilution
Description: as §1, §2, §3

P. acnes PRP-026 = P. acnes PRP-026 (resistance MLS); agar dilution
Description: as §1, §2, §3

P. acnes PRP-059 [10] = settings: P. acnes PRP-059 (resistance MLS); agar dilution
Description: as §1, §2, §3

P. acnes PRP-059 [11] = assay: Disc diffusion assay (DDA), also supplemented; type: cell-based, Propionibacterium acnes; settings: 200 μg per disc
Description: as §4, §5, §6

P. acnes NCTC 737 [12] = assay: Minimum inhibitory concentration (MIC) assay; type: cell-based, Propionibacterium acnes
From the text: (a) Minimum Inhibitory Concentration (MIC) Assay
The culture media were as described above.
The assays included both negative (culture medium with no micro-organisms) and positive (culture medium plus diluting solvent plus micro-organism) controls.

P. acnes NCTC 737 [13] = assay: Synergy disc diffusion assay (SDDA), also supplemented
P. acnes PRP-053 = assay: Disc diffusion assay (DDA), also supplemented; type: cell-based, Propionibacterium acnes; settings: 200 μg per disc
Description: as §4, §5, §6

P. acnes PRP-102 [14] = assay: Disc diffusion assay (DDA), also supplemented; type: cell-based, Propionibacterium acnes; settings: 200 μg per disc
Description: as §4, §5, §6

O.O.O.O.O.O=S(=O)([O-])[O-].[Cu+2] [Copper (II) sulphate pentahydrate]
DDA + salt (P. acnes PRP-101 [1]): 53.21 mm | DDA + lipid (P. acnes PRP-101 [1]; 1% (v/v) triolein): 55.03 mm | DDA (P. acnes PRP-101 [1]; single replicate): 45.30 mm | DDA (P. acnes PRP-101 [1]; Table 12 series): 43.49 mm | DDA + salt (P. granulosum PRP-021 [2]): 32.84 mm | DDA + lipid (P. granulosum PRP-021 [2]; 1% (v/v) triolein): 28.28 mm | DDA (P. granulosum PRP-021 [2]; single replicate): 27.67 mm | DDA (P. granulosum PRP-021 [2]; Table 12 series): 29.59 mm | DDA + salt (P. acnes PRP-023 [3]): 51.38 mm | DDA + lipid (P. acnes PRP-023 [3]; 1% (v/v) triolein): 47.43 mm | DDA (P. acnes PRP-023 [3]; single replicate): 47.13 mm | DDA (P. acnes PRP-023 [3]; Table 12 series): 60.95 mm | DDA + salt (P. acnes PRP-008 [4]): 51.99 mm | DDA + lipid (P. acnes PRP-008 [4]; 1% (v/v) triolein): 48.65 mm | DDA (P. acnes PRP-008 [4]; single replicate): 52.29 mm | DDA (P. acnes PRP-008 [4]; Table 12 series): 43.70 mm | MIC (P. acnes PRP-101 [5]): 7.8 µg/mL | MIC (P. granulosum PRP-044): 62.5 µg/mL | MIC (P. acnes PRP-017): 7.8 µg/mL | MIC (P. acnes PRP-004): 7.8 µg/mL | MIC (P. acnes PRP-008 [6]): 7.8 µg/mL | MIC (P. granulosum NCTC 11865): 7.8 µg/mL | MIC (P. granulosum PRP-005): 62.5 µg/mL | MIC (P. acnes PRP-102 [7]): 7.8 µg/mL | MIC (P. acnes PRP-039): 7.8 µg/mL | MIC (P. acnes PRP-023 [8]): 7.8 µg/mL | MIC (P. granulosum PRP-006): 62.5 µg/mL | MIC (P. acnes PRP-046): 7.8 µg/mL | MIC (P. granulosum PRP-021 [9]): 62.5 µg/mL | MIC (P. acnes PRP-003): 7.8 µg/mL | MIC (P. acnes PRP-010): 7.8 µg/mL | MIC (P. acnes PRP-007): 7.8 µg/mL | MIC (P. acnes PRP-068): 7.8 µg/mL | MIC (P. acnes PRP-026): 7.8 µg/mL | MIC (P. acnes PRP-059 [10]): 7.8 µg/mL | DDA + salt (P. acnes PRP-059 [11]): 55.33 mm | DDA + lipid (P. acnes PRP-059 [11]; 1% (v/v) triolein): 48.95 mm | DDA (P. acnes PRP-059 [11]; single replicate): 48.04 mm | DDA (P. acnes PRP-059 [11]; Table 12 series): 50.70 mm | MIC (P. acnes NCTC 737 [12]): 15.6 µg/mL | MIC/MBC ratio (P. acnes NCTC 737 [12]): 0.125 | SDDA area increase (P. acnes NCTC 737 [13]): 108.63% | SDDA increase (P. acnes NCTC 737 [13]): 22.11 mm | SDDA with TBHQ (P. acnes NCTC 737 [13]): 71.86 mm | SL SDDA area increase (P. acnes NCTC 737 [13]): 64.85% | SL SDDA increase (P. acnes NCTC 737 [13]): 14.18 mm | SL SDDA with TBHQ (P. acnes NCTC 737 [13]): 64.14 mm | DDA + salt (P. acnes PRP-053): 54.42 mm | DDA + lipid (P. acnes PRP-053; 1% (v/v) triolein): 51.08 mm | DDA (P. acnes PRP-053; single replicate): 43.78 mm | DDA (P. acnes PRP-053; Table 12 series): 50.18 mm | DDA + salt (P. acnes PRP-102 [14]): 49.25 mm | DDA + lipid (P. acnes PRP-102 [14]; 1% (v/v) triolein): 50.77 mm | DDA (P. acnes PRP-102 [14]; single replicate): 46.52 mm | DDA (P. acnes PRP-102 [14]; Table 12 series): 51.65 mm
